US11680264B2, “Methods of modulating melanosome pH and melanin level in cells” (Cornell University, priority 2016, dated 2023)

Columns and labels:
sAC^FF mouse melanocytes [1] = assay: LysoSensor Yellow/Blue DND-160 organelle pH assay; format: cell-based; settings: 30 μM, 4 hours
Description: (§1) To determine the pH of the sAC^KO and sAC^FF melanocytes the pH-sensitive vital dye LysoSensor Yellow/Blue DND-160 (Bellono et al. Sci Rep., 6:26570 (2016)) was used. Briefly, cells were incubated with 1 μM LysoSensor DND-160 (Invitrogen) for 5 minutes at 37° C. Lysosensor was excited at 405 nm and its emission detected at 417-483 nm (W1) and 490-530 nm (W2). The ratio of emissions (W1/W2) in Lysosensor-stained puncta was assigned to a pH value based on a calibration curve generated for each experiment using solutions containing 125 mM KCl, 25 mM NaCl, 24 μM monensin, and varying concentrations of MES to adjust the pH to 4, 4.5, 5.0, 5.5, 6.0, 6.5, 7.0, 7.5. The fluorescence ratio was linear for pH 5.0-7.0.
as §1, with “The effect” for “To determine the pH”, “pharmacologic inhibition of sAC was examined using” for “the sAC^KO and sAC^FF melanocytes”, “vial” for “vital”, “assay, described above.” for “(Bellono et al. Sci Rep., 6:26570 (2016)) was used.”, “Briefly, cultured sAC^FF melanocytes were treated for 4 hours with 30 μM KH7, 30 μM LRE1, or control (untreated). The” for “Briefly,”

sAC^KO mouse melanocytes [2] = assay: LysoSensor Yellow/Blue DND-160 organelle pH assay; format: cell-based; settings: 30 μM, 4 hours
Description: as §1
as §1, with “The effect” for “To determine the pH”, “pharmacologic inhibition of sAC was examined using” for “the sAC^KO and sAC^FF melanocytes”, “vial” for “vital”, “assay, described above.” for “(Bellono et al. Sci Rep., 6:26570 (2016)) was used.”, “Briefly, cultured sAC^FF melanocytes were treated for 4 hours with 30 μM KH7, 30 μM LRE1, or control (untreated). The” for “Briefly,”

sAC^FF mouse melanocytes [3] = assay: DAMP melanosome pH assay (HMB45 co-staining); format: cell-based; settings: KH7 30 μM, 4 hours
Description: (§2) N-{3-[(2,4-dinitrophenyl)amino]propyl}-N-(3-aminopropyl)methylamine dihydrochloride (DAMP) is a weakly basic amine that is taken up in acidic organelles of live cells and which has been used to measure melanosome pH (Bin et al., PLOS One, 10(6):e0129273 (2015); Tabata et al., Cell Tissue Res., 332(3): 447-460 (2008)). Cells were cultured on sterile glass coverslips in 24-mm wells at 50×10^3 cells/coverslip. […] After permeabilization with 0.1% Triton X-100 in Buffer A at −20° C., the cells were labeled with the supplied anti-DNP antibody (Oxford Biomedical Research) according to kit protocol. Melanosomes were identified using the monoclonal antibody (anti-HMB45, 1:40, Santa Cruz Biotechnology). Fluorescence was detected after secondary staining with Alexa Fluor 546 donkey anti-goat IgG antibody (Invitrogen) and Alexa Fluor 647 donkey anti-mouse IgG antibody (Invitrogen). All quantitative analyses were performed using the Object Count tool in Nikon AR 4.60. For each image, the lower intensity threshold limit of each fluorescence channel was defined as the intensity of the dimmest punctum returned using the 3 points circle threshold tool. The upper intensity threshold limit was set to the maximum value. Equivalent diameter (EqDiameter) was restricted to 1.85-30.00 pixels. Circularity was restricted to 0.20-1.00. Mean fluorescence intensity was measured for all DAMP^+ puncta. Melanosomes were identified as HMB45^+ puncta. DAMP measurements were only recorded when colocalized with HMB45. Frequency distributions were generated for each sample from mean DAMP fluorescence intensity of DAMP^+ melanosomes. All analyses were performed on two replicate coverslips (n≥15 cells per coverslip). Melanosomes were first identified as TRP1^+ or tyrosinase^+ puncta. sAC^+ melanosomes were identified as R52^+ or R21^+ puncta colocalizing with TRP1^+ or tyrosinase^+ puncta. The degree of colocalization between sAC and melanosomes was calculated as the number of sAC+ melanosomes divided by the total number of melanosomes and expressed as a percentage.
(§3) The effect of pharmacologic inhibition of sAC was also measured using the DAMP assay described above. Briefly, Cells were cultured on sterile glass coverslips in 24-mm wells at 50×10^3 cells/coverslip and treated or not treated for 4 hours with 30 μM KH7 or LRE1. […] After permeabilization with 0.1% Triton X-100 in Buffer A at −20° C., the cells were labeled with the supplied anti-DNP antibody (Oxford Biomedical Research) according to kit protocol. Melanosomes were identified using the monoclonal antibody (anti-HMB45, 1:40, Santa Cruz Biotechnology). Fluorescence was detected after secondary staining with Alexa Fluor 546 donkey anti-goat IgG antibody (Invitrogen) and Alexa Fluor 647 donkey anti-mouse IgG antibody (Invitrogen). All images were acquired using a Zeiss LSM 880 and analyzed using NIS-Elements AR 4.60 (Nikon).

sAC^KO mouse melanocytes [4] = assay: DAMP melanosome pH assay (HMB45 co-staining); format: cell-based; settings: 4 hours, KH7 30 μM, cAMP analogs 500 μM, ESI-09 10 μM, MSH 100 nM
Description: as §2, §3

human melanocytes = assay: DAMP melanosome pH assay (HMB45 co-staining); format: cell-based; settings: 4 hours, KH7 30 μM, cAMP 500 μM, H89 10 μM, ESI-09 10 μM
Description: as §2
The effect of sAC inhibition on melanosome pH was also assessed in human melanocytes.

C3H/HeJ mice = assay: Topical treatment of epilated back skin, hair pigmentation; format: in vivo, mouse
Description: Therefore, experiments were performed to determine whether inhibition of sAC in animals could alter hair pigmentation. Animal experiments were performed in accordance with approved Institutional Animal Care and Use Committee protocol at Weill Cornell Medicine. Age and gender matched C3H/HeJ mice (female, 7 weeks old) were purchased from The Jackson Laboratory. For the analysis of hair pigmentation, the upper and lower dorsum of each mouse were epilated using hair removal wax. 10 μl of KH7 (42 mg/ml in DMSO), LRE1 (28 mg/ml in DMSO) or DMSO (vehicle control) was topically applied onto the upper back and DMSO was applied to the lower back three times a day over two weeks. These mice were monitored for changes in coat color as the epilated hair grew back. Hair was removed from each treated area after 3 weeks to measure the length of the total hair, apical black tip and subapical agouti (pheomelanin) band under a stereo microscope. Mice were euthanized and the treated skin was submitted to a blinded animal pathologist for histological evaluation of the epidermis and hair follicles. This experiment was performed twice with 3-4 mice per cohort (total n=6-7)

[5] = topical on back, hair removed after 3 weeks

`CC(Sc1nc2ccccc2[nH]1)C(=O)N/N=C/c1cc(Br)ccc1O` (stereo not shown) [KH7] was tested, and the “pH of LysoSensor-visualized organelles” value (sAC^FF mouse melanocytes [1]) was “induced an alkaline pH shift”, the “pH of LysoSensor-visualized organelles” value (sAC^KO mouse melanocytes [2]) was “had no effect” and the HMB45 staining intensity (sAC^FF mouse melanocytes [3]; mouse melanocytes) was “had no effect”. The “melanosome pH (DAMP uptake at HMB45 positive melanosomes), substance alone” value (sAC^FF mouse melanocytes [3]; sAC^FF mouse melanocytes, cAMP 500 μM, H89 10 μM, PKI 10 μM, ESI-09 10 μM) was “reduction in DAMP uptake (alkaline shift in pH)”, the “melanosome pH (DAMP), substance alone” value (sAC^KO mouse melanocytes [4]) was “had no effect” and the “melanosome pH (DAMP), substance alone” value (human melanocytes) was “alkaline shift in melanosome pH”. For the same compound, the “eumelanin production in hair (microscopic examination)” value (C3H/HeJ mice; [5]) was “increase in eumelanin production”, the “length of the agouti (pheomelanin) band” value (C3H/HeJ mice; [5]) was “reduction in length of the agouti (pheomelanin) band” and the “histologic examination of treated skin” value (C3H/HeJ mice; topical on back, two weeks) was “did not reveal any pathological change to the hair follicles or epidermis”. The “colour of regrown hair versus vehicle control” value (C3H/HeJ mice; topical on epilated back, 10 μl KH7 42 mg/ml or LRE1 28 mg/ml in DMSO, three times a day over two weeks) was “visual darkening of regrown hair”.
